Test results: patent US20100105766A1, “COMPOSITION FOR INHIBITION OR PREVENTION OF BONE DENSITY REDUCTION” (Kirin Beer Kabushiki Kaisha, priority 2003, published 2010)
“Also recorded” adds a separate entry of the source.

Experiments:
[1] = tested on: estrogen-responsive human breast cancer-derived MCF-7 cells; test: Estrogen activity measured by cell growth of MCF-7 cells (Cell Counting Kit); type: cell-based; conditions: for estrogen activity compared with the activity of estradiol: MCF-7 cell growth, relative to 17β-estradiol; for estrogen activity (cell growth of MCF-7 cells as index): 7 days of culture, absorbance at 450 nm
Experimental: The estrogen activity of the test compound was measured using as an index cell growth of estrogen-responsive human breast cancer-derived MCF-7 cells. The cell line used is one that expressed an estrogen receptor and enhanced cell growth in the presence of an estrogen-like substance. Therefore, the estrogen activity was measured by measuring the cell growth of the cell line with Cell Counting Kit (manufactured by DOJINDO LABORATORIES).
The measurement of cell growth of MCF-7 cells with the Cell Counting Kit was carried out by measuring the absorbance at 450 nm of formazane produced from a WST-1 reagent ([…], monosodium salt) incorporated in cells with a microplate reader (SOFTmax (manufactured by Molecular Devices Corporation)).
More specifically, MCF-7 cells were precultured for 3 days in a DMEM medium containing 10% of fetal calf serum (manufactured by Gibco), which had been treated using Dextran-Coated Charcoal (manufactured by Sigma) for adsorbing and removing endogenous steroids, and further containing penicillin and streptomycin (each 10000 units, 1 mg/ml, manufactured by Gibco), 0.1 mM nonessential amino acid (manufactured by Gibco), 1 mM sodium pyruvate (manufactured by Gibco), and 1 μg/ml insulin (human recombinant 27.5 USP unit/mg: (manufactured by Sigma)). A cell suspension having an MCF-7 cell concentration of 8×10^4 cells/ml was prepared and was seeded on a 96 well plate in an amount of 100 μl/well. One day after the initiation of the culture, the medium in the wells was replaced by a medium containing a test compound (0.1% (v/v)) dissolved in dimethylsulfoxide, and culture was continued. On the fourth day of the culture, the medium in the wells was again replaced by a fresh medium containing the test compound. On the seventh day of the culture, the cell growth was measured with Cell Counting Kit.
For purified isoxanthohumol and chemically synthesized 8-prenylnaringenin, the estrogen activity was measured in the same manner as in test 1, except that the concentrations of the test compound in the medium for MCF-7 cell culture were set as follows.
Isoxanthohumol was added so that the concentration of isoxanthohumol in the medium was 1.0×10^−5, 1.0×10^−6, 1.0×10^−7, 1.0×10^−8, 1.0×10^−9, and 1.0×10^−10 mol/L.

[2] = tested on: ovariectomized female SD rats; test: Amelioration of bone mineral density reduction after removal of ovaries (pQCT, femur), test 4; type: in vivo, rat; conditions: oral 10 ml/kg once a day for 28 days, concentrations equal to those in beer (isoxanthohumol also 5-fold and 20-fold)
Experimental: Ovaries on both sides of 9-week old female SD rats were removed, and, from the next day of the ovary removal, the test compound was orally administered into the stomach through a stomach tube (liquid amount 10 ml/kg) once a day for 28 days.
(§1) For the control group and sham operation group, the 0.8% aqueous ethanol solution was orally administered in the same manner as in the test compound administration group. 17β-Estradiol was provided as a positive control and was subcutaneously administered at a dose of 4 μg/kg/day.
Beer (domestically produced pilsner beer) contained 2.1 mg/L isoxanthohumol and 43 μg/L 8-prenylnaringenin. Here this beer was once lyophilized and was then dissolved in water to remove ethanol to give a test compound which was then used in the test.
Isoxanthohumol was dissolved in a 0.8% aqueous ethanol solution so that, as compared with the concentration of isoxanthohumol contained in beer, the resultant solutions had 1-fold, 5-fold and 20-fold isoxanthohumol concentrations. […]
The bone mineral density was measured by dissecting the femur of rats and identifying the cancellous bone mineral density at the distal metaphysis bone end with a pQCT (Peripheral Quantitative computed tomography) bone mineral density measuring apparatus (XCT-960A, manufactured by Norland Stratec).

[3] = tested on: ovariectomized female SD rats; test: In vivo estrogen activity in ovariectomized rats (uterine weight), test 3-b; set-up: species or system rat
Experimental: Ovaries on both sides of 9-week old female SD rats (available from Charles River Japan, Inc.) were removed, and the rats were randomly grouped so that each group consisted of 6 animals. The animals were reared with free feeding of water and AlN-76A (manufactured by CLEA JAPAN INC.). From the next day of the operation, the test compound was forcibly orally administered into the stomach through a stomach tube (liquid amount 10 ml/kg) once a day for 28 days.
as §1, with “Isoxanthohumol was dissolved in a 0.8% aqueous ethanol solution so that, as compared with the concentration of isoxanthohumol contained in beer, the resultant solutions had 1-fold, 5-fold and 20-fold isoxanthohumol concentrations. For” for “For”, “2” for “4”

[4] = tested on: young Wistar female rats; test: In vivo estrogen activity in immature rats (uterine weight), test 3-a; set-up: species or system rat; conditions: oral 1, 5 or 25 mg/kg/day once a day for 3 days
Experimental: In vivo estrogen activity was evaluated using young Wistar female rats. The rats used were provided as follows. At the outset, 20-day old Wistar female rats (available from Charles River Japan, Inc.) were selected so that the difference in body weight among the animals was within ±10% of the average body weight. Thereafter, the animals were randomly grouped so that each group consisted of 6 animals. The animals were reared with free feeding of water and AlN-76A (manufactured by CLEA JAPAN INC.).
After preliminary rearing for one day, isoxanthohumol or 8-prenylnaringenin was forcibly orally administered into the stomach through a stomach tube at a dose of 1, 5, or 25 mg/kg/day (liquid amount 10 ml/kg) once a day for 3 days. For the control group, a solvent (peanut oil) was orally administered in the same manner as described, and for the positive control, 17β-estradiol was provided and was orally administered at a dose of 400 μg/kg/day in the same manner as described above. About 24 hr after the final administration, the uterine was harvested from the rats, and the weight of the uterine was measured to measure the in vivo estrogen activity.

[5] = tested on: bone resorption; conditions: in vitro experiment, reported in the literature; cited from earlier work

Molecule	estrogen activity compared with the activity of estradiol [1]	estrogen activity (cell growth of MCF-7 cells as index) [1]	amelioration of cancellous bone mineral density reduction in the femur [2]	dose without uterine weight increasing activity relative to the dose that exhibited bone mineral density reduction inhibitory activity [3]	in vivo estrogen activity (recovery of uterine weight) ([3]; oral 10 ml/kg once a day for 28 days, 1-fold, 5-fold and 20-fold the concentration in beer)	in vivo estrogen activity (uterine weight increasing activity) [4]	bone resorption inhibitory effect [5]
CC(C)=CCc1c(O)cc(O)c2c1O[C@H](c1ccc(O)cc1)CC2=O [8-prenylnaringenin, reference compound]	10^−2 time	had estrogen activity	This amelioration was not observed	–	–	–	–
COc1cc(O)c(CC=C(C)C)c2c1C(=O)CC(c1ccc(O)cc1)O2 (stereo not drawn) [isoxanthohumol]	about 10^−5 time	had estrogen activity; also recorded: has estrogen activity	confirmed to be effective; also recorded: better than the effect of xanthohumol; also recorded: significantly ameliorated; also recorded: significantly improved a bone mineral density reduction	20 times	significant recovery of the weight of the uterine was not observed; also recorded: did not exhibit uterine weight increasing activity	did not have in vivo estrogen activity for immature rats or had only a very low level of activity; also recorded: did not exhibit uterine weight increasing activity; also recorded: uterine hypertrophy action was not observed	–
COc1cc(O)c(CC=C(C)C)c(O)c1C(=O)/C=C/c1ccc(O)cc1 [xanthohumol, reference compound]	–	–	any activity as in isoxanthohumol was not observed	–	–	–	proven to have bone resorption inhibitory effect
Humulons	–	–	–	–	–	–	proven to have bone resorption inhibitory effect
